Laboratory results as given in the NIST ThermoML archive (doi:10.1016/j.jct.2017.05.001).

Experiment: wn = mass fraction of the nth substance listed
Conditions: Liquid; for mass density: Vibrating tube method

CN(C)CCO [2-(N,N-dimethylamino)ethanol] + O
viscosity [mPa·s]
Conditions	293.15 K	313.15 K	333.15 K
100 kPa, Concentric cylinders viscometry, w1 = 0.1	1.587	0.947	0.623
100 kPa, Concentric cylinders viscometry, w1 = 0.2	2.614	1.408	0.888
100 kPa, Concentric cylinders viscometry, w1 = 0.3	4.334	2.102	1.226
100 kPa, Concentric cylinders viscometry, w1 = 0.4	6.754	3.068	1.671
100 kPa, Falling or rolling sphere viscometry, w1 = 0.1005	1.559	0.9401	0.6336
100 kPa, Falling or rolling sphere viscometry, w1 = 0.202	2.533	1.368	0.8725
100 kPa, Falling or rolling sphere viscometry, w1 = 0.3005	4.211	2.042	1.217
100 kPa, Falling or rolling sphere viscometry, w1 = 0.3995	6.587	2.99	1.651
5000 kPa, Falling or rolling sphere viscometry, w1 = 0.1005	1.564	0.9415	0.6341
5000 kPa, Falling or rolling sphere viscometry, w1 = 0.202	2.547	1.374	0.877
5000 kPa, Falling or rolling sphere viscometry, w1 = 0.3005	4.223	2.063	1.223
5000 kPa, Falling or rolling sphere viscometry, w1 = 0.3995	6.535	3.031	1.669
10000 kPa, Falling or rolling sphere viscometry, w1 = 0.1005	1.564	0.9437	0.6372
10000 kPa, Falling or rolling sphere viscometry, w1 = 0.202	2.557	1.382	0.8862
10000 kPa, Falling or rolling sphere viscometry, w1 = 0.3005	4.258	2.083	1.239
10000 kPa, Falling or rolling sphere viscometry, w1 = 0.3995	6.564	3.075	1.695
15000 kPa, Falling or rolling sphere viscometry, w1 = 0.1005	1.563	0.9453	0.6403
15000 kPa, Falling or rolling sphere viscometry, w1 = 0.202	2.566	1.392	0.8907
15000 kPa, Falling or rolling sphere viscometry, w1 = 0.3005	4.295	2.103	1.249
15000 kPa, Falling or rolling sphere viscometry, w1 = 0.3995	6.801	3.121	1.719
20000 kPa, Falling or rolling sphere viscometry, w1 = 0.1005	1.562	0.9476	0.6431
20000 kPa, Falling or rolling sphere viscometry, w1 = 0.202	2.574	1.395	0.897
20000 kPa, Falling or rolling sphere viscometry, w1 = 0.3005	4.33	2.121	1.26
20000 kPa, Falling or rolling sphere viscometry, w1 = 0.3995	6.863	3.164	1.742
25000 kPa, Falling or rolling sphere viscometry, w1 = 0.1005	1.561	0.9506	0.6461
25000 kPa, Falling or rolling sphere viscometry, w1 = 0.202	2.583	1.4	0.9026
25000 kPa, Falling or rolling sphere viscometry, w1 = 0.3005	4.374	2.142	1.274
25000 kPa, Falling or rolling sphere viscometry, w1 = 0.3995	6.822	3.209	1.765
30000 kPa, Falling or rolling sphere viscometry, w1 = 0.1005	1.564	0.9525	0.6477
30000 kPa, Falling or rolling sphere viscometry, w1 = 0.202	2.589	1.412	0.9063
30000 kPa, Falling or rolling sphere viscometry, w1 = 0.3005	4.405	2.161	1.283
30000 kPa, Falling or rolling sphere viscometry, w1 = 0.3995	7.027	3.253	1.789
40000 kPa, Falling or rolling sphere viscometry, w1 = 0.1005	1.564	0.957	0.6532
40000 kPa, Falling or rolling sphere viscometry, w1 = 0.202	2.605	1.423	0.9178
40000 kPa, Falling or rolling sphere viscometry, w1 = 0.3005	4.464	2.197	1.305
40000 kPa, Falling or rolling sphere viscometry, w1 = 0.3995	6.883	3.342	1.835
60000 kPa, Falling or rolling sphere viscometry, w1 = 0.1005	1.562	0.9672	0.6631
60000 kPa, Falling or rolling sphere viscometry, w1 = 0.202	2.637	1.45	0.9397
60000 kPa, Falling or rolling sphere viscometry, w1 = 0.3005	4.588	2.273	1.353
60000 kPa, Falling or rolling sphere viscometry, w1 = 0.3995	7.591	3.519	1.927
80000 kPa, Falling or rolling sphere viscometry, w1 = 0.1005	1.57	0.9775	0.6729
80000 kPa, Falling or rolling sphere viscometry, w1 = 0.202	2.672	1.479	0.9613
80000 kPa, Falling or rolling sphere viscometry, w1 = 0.3005	4.73	2.348	1.396
80000 kPa, Falling or rolling sphere viscometry, w1 = 0.3995	–	3.698	2.019
100000 kPa, Falling or rolling sphere viscometry, w1 = 0.1005	1.577	0.9881	0.685
100000 kPa, Falling or rolling sphere viscometry, w1 = 0.202	2.706	1.508	0.9835
100000 kPa, Falling or rolling sphere viscometry, w1 = 0.3005	4.861	2.424	1.442
100000 kPa, Falling or rolling sphere viscometry, w1 = 0.3995	–	3.881	2.113

mass density [kg/m3]
Conditions	w1 = 0.1005	w1 = 0.202	w1 = 0.3005	w1 = 0.3995
293.15 K, 100 kPa	994.5	992.6	990.6	986.6
293.15 K, 500 kPa	994.7	992.7	990.7	986.7
293.15 K, 1000 kPa	994.8	992.9	990.9	986.9
293.15 K, 2000 kPa	995.3	993.3	991.3	987.3
293.15 K, 5000 kPa	996.5	994.4	992.4	988.4
293.15 K, 10000 kPa	998.5	996.3	994.2	990.3
293.15 K, 15000 kPa	1000.5	998.2	996	992.1
293.15 K, 20000 kPa	1002.6	1000	997.8	994
293.15 K, 30000 kPa	1006.6	1003.7	1001.4	997.5
293.15 K, 40000 kPa	1010.5	1007.4	1004.9	1001
293.15 K, 50000 kPa	1014.3	1010.8	1008.2	1004.4
293.15 K, 60000 kPa	1018.1	1014.3	1011.6	1007.7
293.15 K, 70000 kPa	1021.8	1017.9	1014.9	1011
293.15 K, 80000 kPa	1025.3	1021.1	1018	1014.1
293.15 K, 90000 kPa	1029	1024.4	1021.2	1017.3
293.15 K, 100000 kPa	1032.5	1027.7	1024.3	1020.4
293.15 K, 110000 kPa	1035.9	1030.8	1027.2	1023.2
293.15 K, 120000 kPa	1039.3	1033.9	1030.2	1026.3
293.15 K, 130000 kPa	1042.7	1037.2	1033.3	1029.2
293.15 K, 140000 kPa	1045.7	1040.1	1036	1031.9
313.15 K, 100 kPa	987.4	983.2	978.8	972.7
313.15 K, 500 kPa	987.6	983.4	979	972.9
313.15 K, 1000 kPa	987.8	983.6	979.2	973.1
313.15 K, 2000 kPa	988.3	984	979.6	973.5
313.15 K, 5000 kPa	989.5	985.2	980.8	974.7
313.15 K, 10000 kPa	991.5	987.2	982.7	976.7
313.15 K, 15000 kPa	993.4	989.1	984.6	978.6
313.15 K, 20000 kPa	995.4	990.9	986.5	980.6
313.15 K, 30000 kPa	999.4	994.8	990.3	984.4
313.15 K, 40000 kPa	1003.4	998.6	994	988.2
313.15 K, 50000 kPa	1007	1002.1	997.5	991.7
313.15 K, 60000 kPa	1010.8	1005.6	1001	995.3
313.15 K, 70000 kPa	1014.5	1009.1	1004.4	998.7
313.15 K, 80000 kPa	1018	1012.5	1007.6	1002
313.15 K, 90000 kPa	1021.4	1015.7	1010.9	1005.3
313.15 K, 100000 kPa	1024.9	1019.1	1014.1	1008.5
313.15 K, 110000 kPa	1028.3	1022.3	1017.3	1011.7
313.15 K, 120000 kPa	1031.6	1025.6	1020.4	1014.7
313.15 K, 130000 kPa	1035	1028.6	1023.4	1017.7
313.15 K, 140000 kPa	1038.2	1031.7	1026.4	1020.7
333.15 K, 100 kPa	977.4	971.5	965.2	957.4
333.15 K, 500 kPa	977.6	971.8	965.4	957.6
333.15 K, 1000 kPa	977.8	972	965.6	957.9
333.15 K, 2000 kPa	978.2	972.4	966.1	958.3
333.15 K, 5000 kPa	979.5	973.7	967.3	959.6
333.15 K, 10000 kPa	981.5	975.7	969.5	961.8
333.15 K, 15000 kPa	983.6	977.7	971.5	963.9
333.15 K, 20000 kPa	985.6	979.7	973.5	966
333.15 K, 30000 kPa	989.7	983.7	977.5	970.2
333.15 K, 40000 kPa	993.7	987.7	981.5	974.2
333.15 K, 50000 kPa	997.3	991.3	985.2	977.9
333.15 K, 60000 kPa	1001.1	995	988.9	981.7
333.15 K, 70000 kPa	1004.9	998.6	992.5	985.4
333.15 K, 80000 kPa	1008.4	1002.1	996	988.9
333.15 K, 90000 kPa	1012	1005.4	999.2	992.3
333.15 K, 100000 kPa	1015.4	1008.9	1002.7	995.8
333.15 K, 110000 kPa	1018.9	1012.2	1006	999
333.15 K, 120000 kPa	1022.3	1015.5	1009.3	1002.4
333.15 K, 130000 kPa	1025.5	–	–	–
